Reference: paper PMC11181486, “Nonsymmetrically Substituted 1,1′-Biphenyl-Based Small Molecule Inhibitors of the PD-1/PD-L1 Interaction” (ACS Medicinal Chemistry Letters, 2024)
Where two headings read alike, the source gives them in different places.

Key:
[1] = target: T1, PD-1/PD-L1 (Homo sapiens, UniProt Q9NZQ7); experiment: Homogeneous time-resolved fluorescence (HTRF) PD-1/PD-L1 assay (CisBio kit); assay type: binding; parameters: Tag1 or Tag2 (kit's undisclosed tag); purchased CisBio; conditions: for remaining activity at 0.005 µM: 2 h, read-out: HTRF Fraction of the undissociated protein complex
Description: The certified CisBio kit was used to conduct the HTRF assay, adhering to the manufacturer’s guidelines. The assay setup comprised hPD-1, hPD-L1, anti-Tag1 tagged with Europium cryptate (HTRF donor), and anti-Tag2 tagged with XL665 (HTRF acceptor). The experiments utilized final concentrations of 5 nM hPD-L1 and 50 nM hPD-1 in a 20 μL total volume performed in triplicate. Per the CisBio instructions, all components were combined, the plate was incubated at ambient temperature for 2 h, and the TR-FRET (time-resolved fluorescence energy transfer) was carried out using the Tecan Spark 20M. The negatives in the acquired data were subtracted for background, the positives were standardized, and then the data were averaged.
of 50 mM of the compound. Samples were then diluted to 50 nM and used for measurements.
Target sequence in this assay (Q9NZQ7 19-238 limits assumed): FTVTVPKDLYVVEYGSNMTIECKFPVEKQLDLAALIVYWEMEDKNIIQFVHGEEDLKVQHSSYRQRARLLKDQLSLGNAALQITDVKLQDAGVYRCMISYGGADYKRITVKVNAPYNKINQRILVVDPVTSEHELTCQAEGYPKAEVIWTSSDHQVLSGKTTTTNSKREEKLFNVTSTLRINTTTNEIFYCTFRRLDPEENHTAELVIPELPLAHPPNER

[2] = target: T1, PD-1/PD-L1; experiment: cell-based; parameters: host or cells: PD-L1+ aAPC/CHO-K1 cells; PD-1 effector Jurkat cells
Description: The PD-1/PD-L1 immune checkpoint bioassay (PD-1/PD-L1 Bioassay, Promega) was conducted according to the manufacturer’s protocol. PD-L1+ aAPC/CHO-K1 cells were seeded at a density of […] in 100 μL of medium [Ham’s F12, 10% fetal bovine serum (FBS)] in 96-well white flat-bottomed plates and incubated overnight at 37 °C in the presence of 5% CO2. The next day, the medium was removed, and serial dilutions of small molecule inhibitors were added at 40 μL per well in assay buffer (RPMI1640 + 1% FBS + 1% DMSO). […] The cells were cocultured for 6 h at 37 °C with 5% CO2 followed by a 5 min equilibration at room temperature. Bio-Glo Reagent (Promega) was prepared and added at 80 μL per well. After a 15 min incubation at room temperature, luminescence was measured using a Tecan Spark microplate reader. Data are presented as fold induction of luminescence relative to DMSO-treated cells. EC50 values were calculated using the log(inhibitor) vs response variable slope (four-parameter) analysis model with GraphPad Prism software.
Target sequence in this assay (Q9NZQ7 19-290): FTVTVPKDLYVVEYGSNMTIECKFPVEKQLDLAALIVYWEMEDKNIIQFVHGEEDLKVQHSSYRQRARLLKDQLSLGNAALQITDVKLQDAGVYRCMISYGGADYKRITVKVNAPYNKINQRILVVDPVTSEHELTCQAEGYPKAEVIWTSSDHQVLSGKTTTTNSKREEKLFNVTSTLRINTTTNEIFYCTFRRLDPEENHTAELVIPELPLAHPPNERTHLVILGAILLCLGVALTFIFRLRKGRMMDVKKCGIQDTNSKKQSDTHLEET

[3] = Solubility of the compounds (visual evaluation and A600 of dilutions); assay type: physicochemical; conditions: for A600 measurement (averaged from 2 reps): absorbance at 600 nm, 96-well plate, blank 0.0472, values in parentheses unreliable (precipitate); for solubility: kinetic from dmso stock, dilutions from DMSO stock, visually evaluated
Description: compound was 500 nM). The dilutions were then visually evaluated according to the following […]
+++ clear solution, no precipitation
++ slight turbidity, no precipitate
+ visible turbidity, no precipitate.
+/- strong turbidity, no precipitation.
- visible precipitation and/or visible precipitation in the original 100% DMSO solution.
The dilutions prepared in this way were applied to a 96-well plate and the absorbance measured […]
at a wavelength of 600 nm.
Table S2, Blank of 10 Measurements.
Table S2. Solubility of the compounds

[4] = target: T2, hPD-L1 (human PD-L1) (Homo sapiens, UniProt Q9NZQ7); experiment: 1H NMR titration with hPD-L1; assay type: binding; conditions: molar ratio protein to compound 1:1
T2 construct: The human PD-L1 IgV domain (residues 18–134, C-terminal His-tag) was expressed and purified; His-tag (C); made in house
Description: Representative molecules were evaluated for their interaction with PD-L1 by means of an ^1H NMR titration experiment.

[5] = target: T3, hPD-1/hPD-L1 complex (Homo sapiens, UniProt Q9NZQ7); experiment: PD-1/PD-L1 NMR-based antagonist-induced dissociation assay (AIDA); assay type: binding; conditions: complex of hPD-1/hPD-L1 with compound, 1:1 molar ratio protein to compound
T3 construct: The human PD-L1 IgV domain (residues 18–134, C-terminal His-tag) was expressed and purified; His-tag (C); made in house
Description: In addition, we performed a PD-1/PD-L1 NMR-based antagonist-induced dissociation assay (AIDA).[42],[43] The AIDA assay was performed by adding a slight molar excess of PD-L1 to PD-1, which causes ^1H NMR signals to broaden corresponding to complex formation (Figure 2). […] However, in Figure 2 (purple), these are obscured by the sharper NMR signals of monomeric PD-1 released from the PD-L1/PD-1 complex.
Figure 2 NMR-based AIDA assay showing that a compound displaces PD-1 from PD-L1.

[6] = target: T1, PD-1/PD-L1; parameters: host or cells: PD-L1+ aAPC/CHO-K1 cells; PD-1 effector Jurkat cells; conditions: Figure S2B; ref Koblish et al.; cited from earlier work
Target sequence in this assay (Q9NZQ7 19-290): as above

[7] = at the 5 nM concentration of the inhibitor, 5 nM hPD-L1, 50 nM hPD-1
[8] = PD-L1+ aAPC/CHO-K1 cells cocultured 6 h with PD-1 effector Jurkat cells, read-out: PD-1/PD-L1 blockade, NFAT reporter bioassay EC50

T2 sequence (Q9NZQ7 18-134): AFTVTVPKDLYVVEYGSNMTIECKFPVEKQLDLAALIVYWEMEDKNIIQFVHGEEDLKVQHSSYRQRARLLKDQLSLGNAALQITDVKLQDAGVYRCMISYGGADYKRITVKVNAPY
T3 sequence (Q9NZQ7 18-134, one chain of several): as the sequence (Q9NZQ7 18-134) above

Cc1c(COc2cc(OCc3cccc(C#N)c3)c(CN3C[C@H](O)C[C@@H]3C(=O)O)cc2Cl)cccc1-c1ccc2c(c1)OCCO2 [BMS-1166, reference compound]
HTRF Fraction of the undissociated protein complex [1, 7]: 0.59

Cc1c(NC(=O)c2ccc(CNCCO)cn2)cccc1-c1cccc(NC(=O)c2ccc(CNCCO)cn2)c1C [Cmpd A, reference compound]
remaining activity at 0.005 µM [1, 7]: 18% | EC50 [2, 8]: 14.7 nM

Cc1c(NC(=O)c2ccc(CN[C@@H]3CCC[C@H]3O)cn2)cccc1-c1cccc(NC(=O)c2ccc(CN(C)CCO)cn2)c1C [Compound 1]
A600 measurement (averaged from 2 reps) [3]: 0.5138 | solubility [3]: < 500 µM

Cc1c(NC(=O)c2ccc(CN[C@@H](C)CO)cn2)cccc1-c1cccc(NC(=O)c2ccc(CN(C)CCO)cn2)c1C [Compound 2]
A600 measurement (averaged from 2 reps) [3]: 0.4023 | solubility [3]: < 500 µM | IC50 [1]: 1.46 nM | remaining activity at 0.005 µM [1, 7]: 42% | EC50 [2, 8]: 21.8 nM

Cc1c(NC(=O)c2ccc(CN[C@@H](C)CO)cn2)cccc1-c1cccc(NC(=O)c2ccc(CN(C)CCO)cn2)c1C.Cl.Cl.Cl [Compound 2a]
A600 measurement (averaged from 2 reps) [3]: 0.1517 | solubility [3]: < 500 µM | EC50 [2, 8]: 25 nM

Cc1c(NC(=O)c2ccc(CNCCCO)cn2)cccc1-c1cccc(NC(=O)c2ccc(CN(CCO)CCO)cn2)c1C [Compound 3]
A600 measurement (averaged from 2 reps) [3]: 0.2786 | solubility [3]: < 500 µM | EC50 [2]: ~200 nM | EC50 [2, 8]: 251 nM

Cc1c(NC(=O)c2ccc(CN[C@@H]3CCC[C@H]3O)cn2)cccc1-c1cccc(NC(=O)c2ccc(CN(CCO)CCO)cn2)c1C [Compound 4]
A600 measurement (averaged from 2 reps) [3]: 0.2271 | solubility [3]: < 500 µM

Cc1c(NC(=O)c2ccc(CNCCCO)cn2)cccc1-c1cccc(NC(=O)c2ccc(CN(C)C(CO)CO)cn2)c1C [Compound 5]
A600 measurement (averaged from 2 reps) [3]: 0.04735 | solubility [3]: < 500 µM | EC50 [2]: ~200 nM | EC50 [2, 8]: 110 nM

COC(=O)[C@H](C)NCc1ccc(C(=O)Nc2cccc(-c3cccc(NC(=O)c4ccc(CN5CCCC5)cn4)c3C)c2C)nc1 [Compound 6]
A600 measurement (averaged from 2 reps) [3]: 0.0627 | solubility [3]: < 500 µM

Cc1c(NC(=O)c2ccc(CNCCCO)cn2)cccc1-c1cccc(NC(=O)c2ccc(CN(C)CCO)cn2)c1C [Compound 7]
A600 measurement (averaged from 2 reps) [3]: 0.3466 | solubility [3]: < 500 µM

Cc1c(NC(=O)c2ccc(CN(C)CCO)cn2)cccc1-c1cccc(NC(=O)c2ccc(CN(CCO)CCO)cn2)c1C [Compound 8]
A600 measurement (averaged from 2 reps) [3]: 0.459 | solubility [3]: < 500 µM

Cc1c(NC(=O)c2ccc(CNCCCO)cn2)cccc1-c1cccc(NC(=O)c2ccc(CN3CCC(O)CC3)cn2)c1C [Compound 9]
A600 measurement (averaged from 2 reps) [3]: 0.09395 | solubility [3]: < 500 µM | remaining activity at 0.005 µM [1, 7]: 26% | EC50 [2]: > 180 nM | EC50 [2, 8]: 188 nM

Cc1c(NC(=O)c2ccc(CN[C@@H](C)CO)cn2)cccc1-c1cccc(NC(=O)c2ccc(CN3CCC(O)CC3)cn2)c1C [Compound 10]
A600 measurement (averaged from 2 reps) [3]: 0.1308 | solubility [3]: < 500 µM | remaining activity at 0.005 µM [1, 7]: 30% | EC50 [2]: > 180 nM | EC50 [2, 8]: 287 nM

Cc1c(NC(=O)c2ccc(CN[C@@H]3CCC[C@H]3O)cn2)cccc1-c1cccc(NC(=O)c2ccc(CN3CCC(O)CC3)cn2)c1C [Compound 11]
A600 measurement (averaged from 2 reps) [3]: 0.1117 | solubility [3]: < 500 µM | remaining activity at 0.005 µM [1, 7]: 43% | EC50 [2]: > 180 nM | EC50 [2, 8]: 553 nM

Cc1c(NC(=O)c2ccc(CNCCCO)cn2)cccc1-c1cccc(NC(=O)c2ccc(CN[C@@H]3CCC[C@H]3O)cn2)c1C [Compound 12]
A600 measurement (averaged from 2 reps) [3]: 0.0476 | solubility [3]: > 500 µM

Cc1c(NC(=O)c2ccc(CN[C@@H](C)CO)cn2)cccc1-c1cccc(NC(=O)c2ccc(CN[C@@H]3CCC[C@H]3O)cn2)c1C [Compound 13]
A600 measurement (averaged from 2 reps) [3]: 0.1827 | solubility [3]: < 500 µM

Cc1c(NC(=O)c2ccc(CNCCCO)cn2)cccc1-c1cccc(NC(=O)c2ccc(CN[C@@H](C)CO)cn2)c1C [Compound 14]
A600 measurement (averaged from 2 reps) [3]: 0.05315 | solubility [3]: > 500 µM | effect on hPD-L1 1H NMR lines (broadening) [4]: oligomerization

Cc1c(NC(=O)c2ccc(CNCCO)cn2)cccc1-c1cccc(NC(=O)c2ccc(CNCCNS(C)(=O)=O)cn2)c1C [Compound 16]
A600 measurement (averaged from 2 reps) [3]: 0.0494 | solubility [3]: > 500 µM

Cc1c(NC(=O)c2ccc(CNCCO)cn2)cccc1-c1cccc(NC(=O)c2ccc(CNCCCNS(C)(=O)=O)cn2)c1C [Compound 17]
A600 measurement (averaged from 2 reps) [3]: 0.2217 | solubility [3]: < 500 µM | effect on hPD-L1 1H NMR lines (broadening) [4]: oligomerization | EC50 [2, 8]: 65.8 nM

Cc1c(NC(=O)c2ccc(CNCCO)cn2)cccc1-c1cccc(NC(=O)c2ccc(CNCCCNS(C)(=O)=O)cn2)c1C.Cl.Cl.Cl.Cl [Compound 17a]
A600 measurement (averaged from 2 reps) [3]: 0.2848 | solubility [3]: < 500 µM | AIDA rescue percentage of the PD-1 signal [5]: 100% | effect on hPD-L1 1H NMR lines (broadening) [4]: oligomerization | IC50 [1]: 3.06 nM | dissociation of the PD-1/PD L1 complex (HTRF) ([1]; 5 nM inhibitor concentration): 83% | undissociated complex in the HTRF assay ([1]; 5 nM inhibitor concentration): 17% | EC50 [2, 8]: 76.3 nM

Cc1c(Nc2nccc3cc(CN4CC[C@@H](O)C4)cnc23)cccc1-c1cccc(-c2nc3cc(CN4CC[C@@H](C(=O)O)C4)cc(C#N)c3o2)c1C [INCBO86550]
EC50 [6]: 21.4 nM
